Test results published in patent US7998681B2, “Diagnosis and therapy of antibody-mediated inflammatory auto-immune disorders” (Los Angeles Biomedical Research Institute at Harbor-UCLA …, priority 2000, dated 2011).

Assays:
[1] = system: Thy-1^+ and Thy-1^− fibroblasts; assay: IL-8 production in Thy-1+ and Thy-1- orbital fibroblast subsets; type: cell-based, human; conditions: IL-1β treated
Source text: FIGS. 11A-11C show differential production in TAO-derived Thy-1^+ and Thy-1^− subsets of PGE2 (11A) and IL-8 in response to IL-1β stimulation (11B), and IL-16 in response to stimulation with Graves' IgG (11C).
With regard to cytokine expression, both subsets fail to generate detectable IL-6 under basal culture conditions but synthesize high levels of the cytokine when treated with IL-1β. The magnitude of these responses is similar in the two fibroblast populations. Similarly, both subsets express low basal levels of IL-8 (FIG. 11B). When treated with IL-1β, Thy-1^− fibroblasts synthesize and release extremely high levels of IL-8 and this induction is substantially (5.5-fold) greater than that occurring in the Thy-1^+ subset.

[2] = system: fibroblasts from patients with GD; assay: T lymphocyte migration (chemotaxis) assay of conditioned medium from treated fibroblasts, GD donors; type: cell-based, human; conditions: IgG 100 ng/ml, IL-1β 10 ng/ml, 24 hours
Protocol: The general migration assay is described in detail in Sciaky, D., et al., “Cultured human fibroblasts express constitutive IL-16 mRNA: Cytokine induction of active IL-16 protein synthesis through a caspase-3-dependent mechanism,” J. Immunol. 164(7):3806-14 (2000), hereby incorporated fully by reference. Briefly, fibroblasts from TAO and normal orbital tissue were seeded in 24-well arrays and grown to confluence. Monolayers were shifted containing 1% FBS to which nothing, purified normal or TAO IgG was added for various time intervals. Medium was collected and stored until use at −80° C. Chemotaxis was examined using Boyden chambers to which NWNA-T lymphocytes were added as the cellular targets. 50 μl cell suspension (10^7 cells/ml) were placed in the upper compartments of 48-well micro-chemotaxis chambers separated from 32 μl of serum samples by 8 μm micropore nitrocellulose filters (Neuroprobe). These were incubated at 37° C. in 5% CO2 environment for 3 hr. Filters were fixed, stained with hematoxylin, dehydrated, mounted on glass slides and viewed by light microscopy. Lymphocyte migration was quantified by counting the total number of cells migrating beyond a fixed depth. This depth was set to routinely identify a baseline migration under control conditions of 10-15 cells per high power field. Five such fields were counted in duplicate for each sample and the means±SD were calculated and expressed as percentage values of baseline cell migration in control buffer alone (100%). For each set of experimental conditions, at least three separate determinations were performed. Differences between experimental groups were analyzed by the Student t test using absolute values obtained for lymphocyte migration and statistical difference was accepted at the 95% level of confidence.
To assess specificity for IL-16, experiments were conducted by incubating samples of culture media for 15 min with neutralizing concentrations of anti-IL-16 MAB (clone 14. 1, 10 μg/ml), which blocks the chemotactic activity of 50 ng/ml of rIL-16. Anti-RANTES MAB (5 μg/ml) having an ND50 of 200 ng/ml rRANTES was used to neutralize RANTES as described in Sciaky D., Brazer, W., Center, D. M., Cruikshank, W. W. and Smith, T. J.: Cultured human fibroblasts express constitutive IL-16 mRNA: Cytokine induction of active IL-16 protein synthesis through a caspase-3-dependent mechanism. J. Immunol. 164(7):3806-14, 2000).
Referring to FIGS. 3A-3C, serum concentrations of IL-16 are elevated in patients with active TAO. Moreover, both IL-16 and PGHS-2 protein can be detected in TAO orbital tissue. The concentration of IL-16 is determined in sera from either patients with Graves' disease or normal controls. The sera are subjected to an ELISA assay, which utilizes an anti-IL-16 specific antibody. IL-16 is detected by standard immunohistochemical techniques in thin sections harvested from affected orbital connective tissues from a patient with severe Graves' ophthalmopathy. In a separate measurement of IL-16 dependent T-cell migration, a panel of 11 different fibroblast strains from patients with Graves' disease and 5 from individuals without known thyroid disease were challenged with Graves' IgG (100 ng/ml), normal IgG (100 ng/ml) or IL-1β (10 ng/ml) for 24 hours and assessed for T cell migration activity and IL-16 production (Table II). Graves' IgG induced IL-16 dependent cell migration in 10 of the Graves' fibroblast strains which derived from orbit and skin from various anatomic regions. Included were strains from the pretibial skin as well as the abdominal wall and the neck. The latter two sites rarely manifest Graves' disease. A substantial fraction of Graves' IgG provoked T cell migration activity in most of these strains was resistant to neutralization with anti-IL-16. Similarly, chemoattractants produced by RA fibroblasts can be measured by T-cell migration. […]

Substance: IL-1β: pro-inflammatory cytokine used to activate fibroblasts
- IL-8 induction in Thy-1^− relative to Thy-1^+ subset [1]: 5.5 fold
- T Cell Migration (% control) ([2]; strain 1, Orbit): 194 +/− 11 % control
- T Cell Migration +anti-IL-16 ([2]; strain 1, Orbit): 149 +/− 8 % control
- T Cell Migration +anti-RANTES ([2]; strain 1, Orbit): 167 +/− 10 % control
- T Cell Migration (% control) ([2]; strain 2, Orbit): 195 ± 13 % control
- T Cell Migration +anti-IL-16 ([2]; strain 2, Orbit): 171 ± 7 % control
- T Cell Migration +anti-RANTES ([2]; strain 2, Orbit): 170 ± 8 % control
- T Cell Migration (% control) ([2]; strain 3, Abdominal skin): 195 +/− 13 % control
- T Cell Migration +anti-IL-16 ([2]; strain 3, Abdominal skin): 171 +/− 7 % control
- T Cell Migration +anti-RANTES ([2]; strain 3, Abdominal skin): 171 +/− 8 % control
- T Cell Migration (% control) ([2]; strain 4, Orbit): 236 ± 19 % control
- T Cell Migration +anti-IL-16 ([2]; strain 4, Orbit): 175 ± 12 % control
- T Cell Migration +anti-RANTES ([2]; strain 4, Orbit): 188 ± 9 % control
- T Cell Migration (% control) ([2]; strain 5, Abdominal skin): 144 ± 8 % control
- T Cell Migration +anti-IL-16 ([2]; strain 5, Abdominal skin): 128 ± 8 % control
- T Cell Migration +anti-RANTES ([2]; strain 5, Abdominal skin): 131 ± 5 % control
- T Cell Migration (% control) ([2]; strain 6, Neck skin): 211 ± 13 % control
- T Cell Migration +anti-IL-16 ([2]; strain 6, Neck skin): 148 ± 10 % control
- T Cell Migration +anti-RANTES ([2]; strain 6, Neck skin): 178 ± 12 % control
- T Cell Migration (% control) ([2]; strain 7, Pretibial skin): 236 ± 19 % control
- T Cell Migration +anti-IL-16 ([2]; strain 7, Pretibial skin): 175 ± 12 % control
- T Cell Migration +anti-RANTES ([2]; strain 7, Pretibial skin): 188 ± 9 % control
- T Cell Migration (% control) ([2]; strain 8, Pretibial skin): 204 ± 14 % control
- T Cell Migration +anti-IL-16 ([2]; strain 8, Pretibial skin): 164 ± 10 % control
- T Cell Migration +anti-RANTES ([2]; strain 8, Pretibial skin): 173 ± 8 % control
- T Cell Migration (% control) ([2]; strain 9, Orbit): 243 +/− 13 % control
- T Cell Migration +anti-IL-16 ([2]; strain 9, Orbit): 167 +/− 11 % control
- T Cell Migration +anti-RANTES ([2]; strain 9, Orbit): 189 +/− 10 % control
- T Cell Migration (% control) ([2]; strain 10, Orbit): 248 +/− 19 % control
- T Cell Migration +anti-IL-16 ([2]; strain 10, Orbit): 189 +/− 14 % control
- T Cell Migration +anti-RANTES ([2]; strain 10, Orbit): 206 +/− 12 % control
- T Cell Migration (% control) ([2]; strain 11, Orbit): 210 +/− 13 % control
- T Cell Migration +anti-IL-16 ([2]; strain 11, Orbit): 162 +/− 11 % control
- T Cell Migration +anti-RANTES ([2]; strain 11, Orbit): 183 +/− 6 % control
